Numbers after ± are expanded uncertainties.
Legend:
[1] = Adiabatic calorimetry
[2] = molar heat capacity at constant pressure; details: 101.33 kPa

CCCn1cc[n+](C)c1.N[C@@H](CCC(=O)O)C(=O)[O-]
Details	Glass transition temperature [°C]
[1]	-33 ± 3

[2]
Details	molar heat capacity at constant pressure [J/K/mol]
86.07 K, Glass	150.25 ± 1.4
88.05 K, Glass	152.63 ± 1.4
90.01 K, Glass	154.9 ± 1.4
91.97 K, Glass	157.5 ± 1.4
93.95 K, Glass	159.49 ± 1.4
95.92 K, Glass	162.14 ± 1.4
97.89 K, Glass	164.13 ± 1.5
99.85 K, Glass	166.66 ± 1.5
102.59 K, Glass	169.25 ± 1.5
105.33 K, Glass	173.04 ± 1.5
107.28 K, Glass	175.8 ± 1.5
109.24 K, Glass	177.98 ± 1.5
111.23 K, Glass	179.21 ± 1.5
113.2 K, Glass	181.07 ± 1.5
115.14 K, Glass	183.75 ± 1.5
117.1 K, Glass	185.58 ± 1.5
119.09 K, Glass	186.96 ± 1.6
121.06 K, Glass	188.82 ± 1.6
123 K, Glass	191.13 ± 1.6
124.97 K, Glass	193.29 ± 1.6
126.97 K, Glass	194.36 ± 1.6
128.94 K, Glass	196.26 ± 1.6
130.9 K, Glass	199.43 ± 1.6
132.84 K, Glass	200.78 ± 1.6
134.79 K, Glass	203.07 ± 1.6
136.78 K, Glass	204.43 ± 1.6
138.75 K, Glass	206.24 ± 1.6
140.7 K, Glass	207.69 ± 1.6
142.65 K, Glass	208.89 ± 1.6
144.61 K, Glass	211.05 ± 1.6
146.6 K, Glass	212.89 ± 1.6
148.57 K, Glass	215.15 ± 1.7
150.53 K, Glass	216.91 ± 1.7
153.04 K, Glass	219.16 ± 1.7
155.56 K, Glass	221.42 ± 1.7
157.53 K, Glass	223.77 ± 1.7
159.49 K, Glass	225.64 ± 1.7
161.44 K, Glass	227 ± 1.7
163.38 K, Glass	228.24 ± 1.7
165.3 K, Glass	230.3 ± 1.7
167.27 K, Glass	232.18 ± 1.7
169.28 K, Glass	234.1 ± 1.7
171.28 K, Glass	236.74 ± 1.8
173.27 K, Glass	237.97 ± 1.8
175.25 K, Glass	240.31 ± 1.8
177.21 K, Glass	242.87 ± 1.8
179.17 K, Glass	243.7 ± 1.8
181.11 K, Glass	245.51 ± 1.8
183.05 K, Glass	248.04 ± 1.8
185.03 K, Glass	250.2 ± 1.8
187.05 K, Glass	252.7 ± 1.8
189.06 K, Glass	255.28 ± 1.8
191.06 K, Glass	257.14 ± 1.8
193.05 K, Glass	259.68 ± 1.8
195.03 K, Glass	262.63 ± 1.9
197.01 K, Glass	264.18 ± 1.9
198.97 K, Glass	266.54 ± 1.9
200.93 K, Glass	268.59 ± 1.9
203.31 K, Glass	271.02 ± 1.9
205.67 K, Glass	273.69 ± 1.9
207.65 K, Glass	277.76 ± 1.9
209.69 K, Glass	281.69 ± 1.9
211.73 K, Glass	283.31 ± 1.9
213.76 K, Glass	284.6 ± 1.9
215.8 K, Glass	286.92 ± 1.9
217.82 K, Glass	290.11 ± 2
219.85 K, Glass	294.21 ± 2
221.88 K, Glass	296.62 ± 2
223.91 K, Glass	297.46 ± 2
225.94 K, Glass	299.66 ± 2
227.97 K, Glass	300.73 ± 2
229.99 K, Glass	302.48 ± 2
231.96 K, Glass	310.06 ± 2
234 K, Glass	323.45 ± 2.1
236.07 K, Glass	333.04 ± 2.1
238.02 K, Glass	358.09 ± 2.3
239.86 K, Glass	407.73 ± 2.5
242.01 K, Glass	462.82 ± 2.7
244.24 K, Liquid	471 ± 2.7
246.18 K, Liquid	472.35 ± 2.7
248.12 K, Liquid	473.61 ± 2.7
250.04 K, Liquid	475.54 ± 2.7
251.97 K, Liquid	476.41 ± 2.7
253.9 K, Liquid	477.37 ± 2.7
255.89 K, Liquid	478.45 ± 2.7
257.87 K, Liquid	480.19 ± 2.7
259.86 K, Liquid	481.42 ± 2.7
261.91 K, Liquid	483.73 ± 2.7
263.96 K, Liquid	485.28 ± 2.7
266 K, Liquid	486.86 ± 2.8
268.04 K, Liquid	487.89 ± 2.8
270.07 K, Liquid	489.67 ± 2.8
272.09 K, Liquid	491.51 ± 2.8
274.12 K, Liquid	493.23 ± 2.8
276.13 K, Liquid	495.7 ± 2.8
278.15 K, Liquid	497.67 ± 2.8
280.16 K, Liquid	498.94 ± 2.8
282.16 K, Liquid	501.05 ± 2.8
284.17 K, Liquid	503.38 ± 2.8
286.16 K, Liquid	505.39 ± 2.8
288.12 K, Liquid	507.35 ± 2.8
290.06 K, Liquid	509.26 ± 2.8
292.08 K, Liquid	511.23 ± 2.8
294.05 K, Liquid	513.1 ± 2.9
296.01 K, Liquid	514.91 ± 2.9
297.97 K, Liquid	516.83 ± 2.9
299.93 K, Liquid	518.67 ± 2.9
301.88 K, Liquid	520.07 ± 2.9
303.82 K, Liquid	521.96 ± 2.9
305.77 K, Liquid	523.25 ± 2.9
307.7 K, Liquid	524.77 ± 2.9
309.64 K, Liquid	526.25 ± 2.9
311.57 K, Liquid	527.31 ± 2.9
313.5 K, Liquid	528.82 ± 2.9
315.43 K, Liquid	530.52 ± 2.9
317.41 K, Liquid	531.97 ± 2.9
319.47 K, Liquid	533.47 ± 2.9
321.52 K, Liquid	534.99 ± 2.9
323.57 K, Liquid	536.53 ± 3
325.61 K, Liquid	538.93 ± 3
327.65 K, Liquid	539.74 ± 3
329.68 K, Liquid	541.83 ± 3
331.71 K, Liquid	543.17 ± 3
333.73 K, Liquid	544.98 ± 3
335.75 K, Liquid	546.87 ± 3
337.76 K, Liquid	549.25 ± 3
339.77 K, Liquid	550.76 ± 3
341.77 K, Liquid	553.01 ± 3
343.77 K, Liquid	554.52 ± 3
345.76 K, Liquid	557 ± 3
347.75 K, Liquid	559.26 ± 3
349.74 K, Liquid	561.22 ± 3
351.73 K, Liquid	563.15 ± 3
353.72 K, Liquid	565.12 ± 3.1
355.7 K, Liquid	566.91 ± 3.1
357.68 K, Liquid	568.06 ± 3.1

Reference: the NIST ThermoML archive (doi:10.1021/je100131c)
